The values that follow come from PubChem BioAssay AID328 (DTP/NCI, 2004).

The test system of the test is BDF1 mice, P388 leukemia ip, median survival T/C. The test is described as follows: NCI In Vivo Anticancer Drug Screen. Data for tumor model P388 Leukemia (intraperitoneal) in B6D2F1 (BDF1) mice. To be noted: endpoint: median survival time, higher = longer survival. The procedure, abridged: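 Mice carrying the transplantable tumour receive compound or vehicle. Survival is followed in each arm, and the treated measure is divided by the vehicle measure.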

The mark [1] stands for this setting: dose: 100.0 mg/kg/injection, schedule: Q04DX003 (ip), vehicle: saline.
Where [2] appears, read: dose: 200.0 mg/kg/injection, schedule: Q04DX003 (ip), vehicle: saline.
[3] abbreviates: dose: 400.0 mg/kg/injection, schedule: Q04DX003 (ip), vehicle: saline.
[4] abbreviates: dose: 50.0 mg/kg/injection, schedule: Q01DX009 (ip), vehicle: saline with Tween-80.
Setting [5] is: dose: 100.0 mg/kg/injection, schedule: Q01DX009 (ip), vehicle: saline with Tween-80.
[6] abbreviates: dose: 200.0 mg/kg/injection, schedule: Q01DX009 (ip), vehicle: saline with Tween-80.
The mark [7] stands for this setting: dose: 100.0 mg/kg/injection, schedule: Q04DX003 (ip), vehicle: saline with Tween-80.
[8] abbreviates: dose: 200.0 mg/kg/injection, schedule: Q04DX003 (ip), vehicle: saline with Tween-80.
Setting [9] is: dose: 400.0 mg/kg/injection, schedule: Q04DX003 (ip), vehicle: saline with Tween-80.
Where [10] appears, read: dose: 100.0 mg/kg/injection, schedule: Q01DX009 (ip), vehicle: saline.
The mark [11] stands for this setting: dose: 200.0 mg/kg/injection, schedule: Q01DX009 (ip), vehicle: saline.
The mark [12] stands for this setting: dose: 25.0 mg/kg/injection, schedule: Q01DX009 (ip), vehicle: saline with Tween-80.

Where “and” joins values, the source holds several entries; their conditions need not be identical. Equal values may be shown once. Inconclusive results and toxic doses are left out.

Consider `CC(O)C(C)(C)CO` (stereo not drawn), for which the T/C under setting [1] is 100 % of control, the T/C under setting [2] was 100 % of control and the T/C under setting [3] was 100 % of control.
As for `O=[N+]([O-])c1ccc(/C=C/c2cc(N(CCO)CCO)c3ccccc3n2)cc1`, the T/C reads like this: under setting [4], 94 % of control; under setting [5], 99 % of control; under setting [6], 100 % of control.
`COC(=O)C(Sc1ccccc1N)C1SC(=S)N(Cc2ccccc2)C1=O` (stereo not drawn): the T/C was 95 % of control under setting [4], 104 % of control under setting [5] and 113 % of control under setting [6].
In the case of `COC(=O)/C=C/c1ccc([N+](=O)[O-])cc1`, the T/C under setting [7] was 118 % of control, the T/C under setting [8] was 113 % of control and the T/C under setting [9] is 109 % of control.
As for `CN(Nc1c([N+](=O)[O-])cc([N+](=O)[O-])cc1[N+](=O)[O-])c1ccc2ccccc2c1`, the T/C by setting is: (dose: 100.0 mg/kg/injection, schedule: Q01DX009 (ip), vehicle: Klucel (hydroxypropylcellulose) (HPC)) 120 % of control; (dose: 200.0 mg/kg/injection, schedule: Q01DX009 (ip), vehicle: Klucel (hydroxypropylcellulose) (HPC)) 105 % of control; (dose: 400.0 mg/kg/injection, schedule: Q01DX009 (ip), vehicle: Klucel (hydroxypropylcellulose) (HPC)) 110 % of control.
Take `C=C(Cl)C(=O)OCC`: the T/C is, setting by setting: (dose: 5.0 mg/kg/injection, schedule: Q04DX003 (ip), vehicle: saline) 100 % of control; (dose: 10.0 mg/kg/injection, schedule: Q04DX003 (ip), vehicle: saline) 109 % of control; (dose: 20.0 mg/kg/injection, schedule: Q04DX003 (ip), vehicle: saline) 100 % of control.
With `OCCCN1CNC(=S)NC1`, the T/C reads like this: under setting [10], 108 % of control; under setting [11], 108 % of control.
Regarding `N/N=C(\N)c1nn[nH]n1`, the T/C is 96 % of control under setting [12], 96 % of control under setting [4], 110 % of control under setting [5] and 86 % of control under setting [6].
As to `CC#CCOCC(O)CCl` (stereo not drawn), the T/C by setting is: (dose: 50.0 mg/kg/injection, schedule: Q04DX003 (ip), vehicle: saline) 115 % of control; under setting [10], 108 % of control; under setting [1], 95 % of control; under setting [11], 116 % of control; under setting [2], 90 % of control; under setting [3], 112 % of control.
For the molecule `CCN(CC)CCCC(C)Nc1c2ccccc2nc2c(Cl)cccc12` (stereo not drawn), the T/C (dose: 25.0 mg/kg/injection, schedule: Q01DX009 (ip), vehicle: saline sonified) was 88 % of control and the T/C (dose: 50.0 mg/kg/injection, schedule: Q01DX009 (ip), vehicle: saline sonified) is 94 % of control.
For `CC(Oc1ccc2ccccc2c1I)C(=O)O` (stereo not drawn), the T/C runs as follows: (dose: 50.0 mg/kg/injection, schedule: Q01DX005 (ip), vehicle: saline with Tween-80) 91 % of control; (dose: 100.0 mg/kg/injection, schedule: Q01DX005 (ip), vehicle: saline with Tween-80) 113 % of control; (dose: 200.0 mg/kg/injection, schedule: Q01DX005 (ip), vehicle: saline with Tween-80) 106 % of control.
For `Oc1ccccc1C=NC1CCCCC1.Oc1ccccc1C=NC1CCCCC1.[Cu+2]`, the T/C (dose: 100.0 mg/kg/injection, schedule: Q01DX001 (ip), vehicle: saline sonified) was 90 % of control; the T/C (dose: 200.0 mg/kg/injection, schedule: Q01DX001 (ip), vehicle: saline sonified) was 90 % of control; the T/C (dose: 400.0 mg/kg/injection, schedule: Q01DX001 (ip), vehicle: saline sonified) is 109 % of control.
Regarding `O=[N+]([O-])c1ccccc1N/N=C\c1c(Cl)n(-c2ccccc2)c2ccccc12`, the T/C is 90 % of control (dose: 100.0 mg/kg/injection, schedule: Q04DX002 (ip), vehicle: Klucel (hydroxypropylcellulose) (HPC)); 99 % of control (dose: 200.0 mg/kg/injection, schedule: Q04DX002 (ip), vehicle: Klucel (hydroxypropylcellulose) (HPC)); 115 % of control (dose: 400.0 mg/kg/injection, schedule: Q04DX002 (ip), vehicle: Klucel (hydroxypropylcellulose) (HPC)).
In the case of `CCOC(=O)Cn1c(=S)sc2ccccc21`, the T/C by setting is: under setting [12], 114 % of control; under setting [4], 98 % of control and 114 % of control; under setting [5], 95 % of control and 120 % of control; under setting [6], 93 % of control and 100 % of control.
Turning to `NNc1cccc(C(F)(F)F)c1`, the T/C is, setting by setting: (dose: 12.5 mg/kg/injection, schedule: Q01DX009 (ip), vehicle: saline) 106 % of control; (dose: 25.0 mg/kg/injection, schedule: Q01DX009 (ip), vehicle: saline) 104 % of control; (dose: 50.0 mg/kg/injection, schedule: Q01DX009 (ip), vehicle: saline) 117 % of control.
In the case of `c1ccc(CN2CCN(Cc3ccccc3)C2c2ccccc2)cc1`, the T/C under setting [12] was 103 % of control; the T/C under setting [4] was 97 % of control; the T/C (dose: 50.0 mg/kg/injection, schedule: Q04DX003 (ip), vehicle: saline with Tween-80) is 107 % of control; the T/C under setting [5] was 97 % of control; the T/C under setting [7] is 107 % of control; the T/C under setting [6] was 104 % of control. Also, the T/C was 103 % of control under setting [8]; 106 % of control (dose: 400.0 mg/kg/injection, schedule: Q01DX009 (ip), vehicle: saline with Tween-80); 96 % of control under setting [9].
As to `CCOC(=O)c1nnc(C)[nH]c1=O`, the T/C was 103 % of control under setting [4], 103 % of control under setting [5] and 98 % of control under setting [6].
For the molecule `CCOC(=O)CCOc1ccccc1N(CCCl)CCCl`, the T/C (dose: 0.66 mg/kg/injection, schedule: Q04DX003 (ip), vehicle: other) was 100 % of control; the T/C (dose: 1.0 mg/kg/injection, schedule: Q04DX003 (ip), vehicle: other) is 104 % of control; the T/C (dose: 1.5 mg/kg/injection, schedule: Q04DX003 (ip), vehicle: other) was 104 % of control; the T/C (dose: 1.56 mg/kg/injection, schedule: Q04DX003 (ip), vehicle: other) was 154 % of control; the T/C (dose: 2.25 mg/kg/injection, schedule: Q04DX003 (ip), vehicle: other) was 114 % of control; the T/C (dose: 3.0 mg/kg/injection, schedule: Q04DX003 (ip), vehicle: saline sonified) is 100 % of control. In addition, the T/C (dose: 3.13 mg/kg/injection, schedule: Q04DX003 (ip), vehicle: other) was 181 % of control; the T/C (dose: 3.5 mg/kg/injection, schedule: Q04DX003 (ip), vehicle: saline with Tween-80) was 172 % of control; the T/C (dose: 5.2 mg/kg/injection, schedule: Q04DX003 (ip), vehicle: saline with Tween-80) is 190 % of control; the T/C (dose: 6.0 mg/kg/injection, schedule: Q04DX003 (ip), vehicle: saline sonified) is 100 % of control; the T/C (dose: 9.0 mg/kg/injection, schedule: Q04DX003 (ip), vehicle: saline sonified) was 100 % of control; the T/C (dose: 11.0 mg/kg/injection, schedule: Q04DX003 (ip), vehicle: other) was 227 % of control. Further, the T/C by setting is: (dose: 12.0 mg/kg/injection, schedule: Q01DX009 (ip), vehicle: saline) 152 % of control; (dose: 12.0 mg/kg/injection, schedule: Q04DX003 (ip), vehicle: saline) 156 % of control; (dose: 12.5 mg/kg/injection, schedule: Q04DX003 (ip), vehicle: other) 222 % of control; (dose: 16.5 mg/kg/injection, schedule: Q04DX003 (ip), vehicle: other) 294 % of control; (dose: 25.0 mg/kg/injection, schedule: Q04DX003 (ip), vehicle: other) 150 % of control; (dose: 25.0 mg/kg/injection, schedule: Q04DX003 (ip), vehicle: saline sonified) 159 % of control. The T/C (dose: 50.0 mg/kg/injection, schedule: Q04DX003 (ip), vehicle: saline sonified) is 159 % of control and the T/C (dose: 100.0 mg/kg/injection, schedule: Q04DX003 (ip), vehicle: saline sonified) was 168 % of control.
`CC(Cl)CNC(=O)Nc1cccc2c1CCCC2` (stereo not drawn): the T/C (dose: 100.0 mg/kg/injection, schedule: Q01DX001 (ip), vehicle: saline with Tween-80) was 100 % of control; the T/C (dose: 200.0 mg/kg/injection, schedule: Q01DX001 (ip), vehicle: saline with Tween-80) was 109 % of control; the T/C (dose: 400.0 mg/kg/injection, schedule: Q01DX001 (ip), vehicle: saline with Tween-80) is 90 % of control.
